Laboratory results published in paper PMC7872314, “Modeling Bioavailable Concentrations in Zebrafish Cell Lines and Embryos Increases the Correlation of Toxicity Potencies across Test Systems” (Environmental Science & Technology, 2020).

system: not given; test: not given; settings: ref Comptox, PubChem or DrugBank; cited from earlier work

| Compound | logKow | pKa (Strongest Basic) | Water Solubility [µg/mL] | pKa (Strongest Acidic) |
| --- | --- | --- | --- | --- |
| CCNc1nc(Cl)nc(NC(C)C)n1 [Atrazine] | 2.61 | 1.6 |  |  |
| CCOP(=S)(OCC)Oc1nc(Cl)c(Cl)cc1Cl [Chlorpyrifos] | 4.96 | -4.2 | 1.4 |  |
| CCOP(=S)(OCC)Oc1cc(C)nc(C(C)C)n1 [Diazinon] | 3.81 | 4.2 |  |  |
| COP(=O)(OC)OC=C(Cl)Cl [Dichlorvos] | 1.43 |  |  |  |
| COP(=S)(OC)Oc1ccc([N+](=O)[O-])c(C)c1 [Fenitrothion] | 3.3 |  |  |  |
| Cl[C@H]1[C@H](Cl)[C@@H](Cl)[C@@H](Cl)[C@H](Cl)[C@H]1Cl [Lindane] | 3.72 |  | 7.3 |  |
| CC1(C)C(C=C(Cl)Cl)C1C(=O)OCc1cccc(Oc2ccccc2)c1 (centres unmarked) [Permethrin] | 6.5 | -3.7 |  |  |
| CNC(=O)Oc1ccccc1OC(C)C [Propoxur] | 1.52 | -4.9 |  | 14.8 |
| CCNc1nc(Cl)nc(NC(C)(C)C)n1 [Terbuthylazine] | 3.21 | 2 |  |  |
| c1ccc2[nH]c(-c3cscn3)nc2c1 [Thiabendazole] | 2.47 | 4.6 |  |  |

system: zebrafish embryos; test: not given; parameters: method as in earlier work; settings: 144 hpf, nominal, converted; cited from earlier work

| Compound | EC50 [nM] |
| --- | --- |
| COCC(=O)Nc1cc(Sc2ccccc2)ccc1N/C(=N\C(=O)OC)NC(=O)OC [Febantel, febantel] | 761 |

same assay, conditions: nominal, log10; cited from earlier work

| Compound | logEC50 144 hpf [M] |
| --- | --- |
| COCC(=O)Nc1cc(Sc2ccccc2)ccc1N/C(=N\C(=O)OC)NC(=O)OC [Febantel, febantel] | -6.118 |

system: rat cardiomyoblast cells vs fish / zebrafish embryos; test: Potency ratios of the Rodrigues et al. data; settings: bioavailable concentrations; embryo data chronic exposure 35 dpf

| Compound | potency ratio (Rodrigues et al. data) |
| --- | --- |
| Cl[C@H]1[C@H](Cl)[C@@H](Cl)[C@@H](Cl)[C@H](Cl)[C@H]1Cl [Lindane] | 13.6 |
